Assay results as given in US20230405134A1, “NOVEL PROTAC CHIMERIC COMPOUND, AND PHARMACEUTICAL COMPOSITION COMPRISING SAME FOR PREVENTING, AMELIORATING, OR TREATING DISEASES THROUGH TARGET PROTEIN DEGRADATION” (POSTECH RESEARCH AND BUSINESS DEVELOPMENT FOUNDATION, priority 2020, published 2023).
Where a SMILES comes first, the peptide text is derived from it. Bridges are numbered along the chain shown (N, C = ends). [ ]: non-standard residue; d: D form. Cha = N[C@@H](CC1CCCCC1)C(=O)O; S5 = C=CCCC[C@](C)(N)C(=O)O

Legend:
[1] = target: T1, PAS-B domain of SRC-1 (Homo sapiens, UniProt Q15788); assay: Competitive fluorescence polarization (FP) assay against fluorescently labeled STAT-6 peptide; format: binding; conditions: STAT-6 peptide 100 nM, PAS-B domain 5 μM
T1 construct: PAS-B domain of human SRC-1 (residues 257-385) tagged with His6; His6 (cleaved yes); made in house; host or cells: E. coli BL21 (DE3) pLysS
T1 sequence (Q15788 257-385): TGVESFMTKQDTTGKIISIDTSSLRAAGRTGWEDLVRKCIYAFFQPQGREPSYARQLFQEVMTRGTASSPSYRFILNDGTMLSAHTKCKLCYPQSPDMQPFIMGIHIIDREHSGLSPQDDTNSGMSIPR
Experimental: An expression plasmid of the PAS-B domain of human SRC-1 (residues 257-385) tagged with His6 was provided by Professor John. A. Robinson. (ChemBioChem 2008, 9, 1318-1322). The plasmid was transformed into BL21 (DE3) pLysS cells, and the protein was cultured in Luria-Bertani broth medium and induced with 0.5 mM IPTG at 18° C. for 16 hours. Cell disruption was performed by ultrasonic treatment in a buffer (50 mM Tris-HCl pH 8.0, 200 mM NaCl and 1 mM TCEP), and insoluble materials were removed by centrifugation. HisTrap™ column (GE Healthcare, 17-5255-01) chromatography was performed on the buffer and 500 mM of imidazole was applied for elution. In order to remove the His6-tag, TEV protease was used and the cleaved samples were loaded in HisTrap™ as described above. […]
A competitive fluorescence polarization (FP) assay was performed to evaluate the binding affinity of ND1-YL2 to the target protein. […] After further incubation for 1 hour, the polarization of fluorescence was measured by a Tecan F200 microplate reader (excitation wavelength: 485 nm; emission wavelength: 535 nm). IC50 values were determined using non-linear regression and fitted with GraphPad Prism® 4 software using the following equation: Y=Bottom+(Top-Bottom)/(1+10^X-LogIC50) (FIG. 11A). […] The binding affinity was calculated as described above (FIG. 11B).

[2] = target: T2, UBR box (Saccharomyces cerevisiae, UniProt P19812); assay: Competitive fluorescence polarization (FP) assay against fluorescein-labeled RLAA peptide; format: binding, S. cerevisiae
T2 construct: UBR box (residues 113-194) in the UBR1 E3 ubiquitin ligase of S. cerevisiae; made in house
T2 sequence (P19812 113-194): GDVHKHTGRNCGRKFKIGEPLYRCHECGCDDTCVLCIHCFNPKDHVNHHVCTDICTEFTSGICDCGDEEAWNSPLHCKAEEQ
Experimental: An expression plasmid of the PAS-B domain of human SRC-1 (residues 257-385) tagged with His6 was provided by Professor John. A. Robinson. (ChemBioChem 2008, 9, 1318-1322). The plasmid was transformed into BL21 (DE3) pLysS cells, and the protein was cultured in Luria-Bertani broth medium and induced with 0.5 mM IPTG at 18° C. for 16 hours. Cell disruption was performed by ultrasonic treatment in a buffer (50 mM Tris-HCl pH 8.0, 200 mM NaCl and 1 mM TCEP), and insoluble materials were removed by centrifugation. HisTrap™ column (GE Healthcare, 17-5255-01) chromatography was performed on the buffer and 500 mM of imidazole was applied for elution. In order to remove the His6-tag, TEV protease was used and the cleaved samples were loaded in HisTrap™ as described above. The SRC-1 was further purified by size exclusion chromatography (HiLoad™ 16/600 Superdex 75 pg) in a final buffer of 20 mM Tris-HCl pH 7.5, 150 mM NaCl and 1 mM TCEP. The expression and purification of the UBR box (residues 113-194) in the UBR1 E3 ubiquitin ligase of S. cerevisiae was performed in the previous manner. (Nat. Struct. Mol. Biol. 2010, 17, 1175-1181).
A competitive fluorescence polarization (FP) assay was performed to evaluate the binding affinity of ND1-YL2 to the target protein. A fluorescently labeled 15-mer STAT-6 peptide (100 nM) was cultured with the PAS-B domain (5 μM) of SRC-1 in a binding buffer (50 mM HEPES, pH 7.4, 150 mM NaCl, and 0.01% Tween 20). After being placed in black Costar 384-well plates for 30 minutes, they were treated with various concentrations of YL2 and ND1-YL2. After further incubation for 1 hour, the polarization of fluorescence was measured by a Tecan F200 microplate reader (excitation wavelength: 485 nm; emission wavelength: 535 nm). IC50 values were determined using non-linear regression and fitted with GraphPad Prism® 4 software using the following equation: Y=Bottom+(Top-Bottom)/(1+10^X-LogIC50) (FIG. 11A). […] The binding affinity was calculated as described above (FIG. 11B).

[3] = target: T3, SRC-3 (Homo sapiens, UniProt Q9Y6Q9); assay: SRC-3 expression level in MDA-MB-231 cells by Western blot; format: cell-based; conditions: 20 μM
T3 construct: endogenous in cells; host or cells: MDA-MB-231
T3 sequence (Q9Y6Q9 whole entry): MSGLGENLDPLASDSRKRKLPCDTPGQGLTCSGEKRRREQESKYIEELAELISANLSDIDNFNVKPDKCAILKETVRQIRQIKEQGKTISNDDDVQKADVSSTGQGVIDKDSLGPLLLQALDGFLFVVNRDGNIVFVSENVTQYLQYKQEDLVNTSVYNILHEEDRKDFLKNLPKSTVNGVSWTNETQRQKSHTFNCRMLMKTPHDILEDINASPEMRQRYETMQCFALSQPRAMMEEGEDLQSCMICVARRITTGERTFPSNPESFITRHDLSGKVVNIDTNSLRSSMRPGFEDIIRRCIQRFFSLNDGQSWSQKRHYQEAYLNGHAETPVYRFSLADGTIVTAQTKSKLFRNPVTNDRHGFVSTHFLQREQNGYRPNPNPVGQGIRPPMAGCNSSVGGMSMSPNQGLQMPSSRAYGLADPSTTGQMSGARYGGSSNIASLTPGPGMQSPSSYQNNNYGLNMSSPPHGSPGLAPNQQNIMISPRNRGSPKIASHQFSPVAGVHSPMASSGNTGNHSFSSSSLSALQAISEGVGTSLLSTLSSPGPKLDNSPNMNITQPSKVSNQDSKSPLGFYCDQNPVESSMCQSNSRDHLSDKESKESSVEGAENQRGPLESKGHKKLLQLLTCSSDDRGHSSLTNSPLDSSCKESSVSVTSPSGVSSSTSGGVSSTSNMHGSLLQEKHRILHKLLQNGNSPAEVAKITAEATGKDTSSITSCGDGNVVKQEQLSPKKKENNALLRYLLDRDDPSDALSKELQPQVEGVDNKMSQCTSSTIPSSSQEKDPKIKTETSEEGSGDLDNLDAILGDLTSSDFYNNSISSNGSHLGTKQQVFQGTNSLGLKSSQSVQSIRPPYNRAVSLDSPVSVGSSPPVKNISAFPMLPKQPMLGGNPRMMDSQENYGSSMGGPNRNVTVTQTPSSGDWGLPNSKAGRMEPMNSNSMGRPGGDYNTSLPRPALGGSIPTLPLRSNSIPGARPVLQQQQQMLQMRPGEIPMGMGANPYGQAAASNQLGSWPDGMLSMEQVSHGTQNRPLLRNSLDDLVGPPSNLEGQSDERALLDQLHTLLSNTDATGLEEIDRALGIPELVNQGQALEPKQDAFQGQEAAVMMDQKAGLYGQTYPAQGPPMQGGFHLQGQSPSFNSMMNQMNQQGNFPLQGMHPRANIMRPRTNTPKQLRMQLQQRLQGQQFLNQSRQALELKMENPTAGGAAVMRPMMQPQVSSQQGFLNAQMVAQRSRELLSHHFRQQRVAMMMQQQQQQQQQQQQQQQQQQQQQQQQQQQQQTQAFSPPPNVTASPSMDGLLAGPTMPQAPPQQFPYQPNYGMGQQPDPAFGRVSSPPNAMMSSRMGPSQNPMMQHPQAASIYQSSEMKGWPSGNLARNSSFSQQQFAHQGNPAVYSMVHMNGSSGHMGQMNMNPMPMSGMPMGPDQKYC
Experimental: It was confirmed whether ND1-YL2 could selectively target and degrade SRC-1 over other SRC family members. Considering the structural similarity between SRC members, it can be predicted that ND1-YL2 will be able to bind to and degrade other members of the SRC family, such as SRC-3. […] To test this, TNBC MDA-MB-231 cells were treated with ND1-YL2 and the amounts of SRC-3 and SRC-1 were confirmed at the cellular level by Western blotting (FIG. 17).

[4] = tested on: HEK293T; assay: Cell viability assay; format: cell-based; conditions: various concentrations, 48 hours
Experimental: To further confirm the above results, an MTT cell viability assay was performed. MDA-MB-231 (1×10^4 cells/well), HEK293T (1×10^4 cells/well) and Colo205 (2×10^4 cells/well) cells were seeded in a 96-well plate, and cultured under the conditions of 37° C. and 5% carbon dioxide. After 24 hours, the cells were washed twice with DPBS and treated with DMSO or various concentrations of ND1-YL2 in Opti-MEM medium for 48 hours. Cell viability was measured by the Cyto X cell viability assay kit (LPS solution) according to the manufacturer's instructions.

[5] = target: SRC-1 (Homo sapiens, UniProt Q15788); assay: SRC-1 expression level in MDA-MB-231 cells by Western blot; format: cell-based; design: endogenous in cells; host or cells: MDA-MB-231
Sequence of SRC-1 (Q15788 whole entry): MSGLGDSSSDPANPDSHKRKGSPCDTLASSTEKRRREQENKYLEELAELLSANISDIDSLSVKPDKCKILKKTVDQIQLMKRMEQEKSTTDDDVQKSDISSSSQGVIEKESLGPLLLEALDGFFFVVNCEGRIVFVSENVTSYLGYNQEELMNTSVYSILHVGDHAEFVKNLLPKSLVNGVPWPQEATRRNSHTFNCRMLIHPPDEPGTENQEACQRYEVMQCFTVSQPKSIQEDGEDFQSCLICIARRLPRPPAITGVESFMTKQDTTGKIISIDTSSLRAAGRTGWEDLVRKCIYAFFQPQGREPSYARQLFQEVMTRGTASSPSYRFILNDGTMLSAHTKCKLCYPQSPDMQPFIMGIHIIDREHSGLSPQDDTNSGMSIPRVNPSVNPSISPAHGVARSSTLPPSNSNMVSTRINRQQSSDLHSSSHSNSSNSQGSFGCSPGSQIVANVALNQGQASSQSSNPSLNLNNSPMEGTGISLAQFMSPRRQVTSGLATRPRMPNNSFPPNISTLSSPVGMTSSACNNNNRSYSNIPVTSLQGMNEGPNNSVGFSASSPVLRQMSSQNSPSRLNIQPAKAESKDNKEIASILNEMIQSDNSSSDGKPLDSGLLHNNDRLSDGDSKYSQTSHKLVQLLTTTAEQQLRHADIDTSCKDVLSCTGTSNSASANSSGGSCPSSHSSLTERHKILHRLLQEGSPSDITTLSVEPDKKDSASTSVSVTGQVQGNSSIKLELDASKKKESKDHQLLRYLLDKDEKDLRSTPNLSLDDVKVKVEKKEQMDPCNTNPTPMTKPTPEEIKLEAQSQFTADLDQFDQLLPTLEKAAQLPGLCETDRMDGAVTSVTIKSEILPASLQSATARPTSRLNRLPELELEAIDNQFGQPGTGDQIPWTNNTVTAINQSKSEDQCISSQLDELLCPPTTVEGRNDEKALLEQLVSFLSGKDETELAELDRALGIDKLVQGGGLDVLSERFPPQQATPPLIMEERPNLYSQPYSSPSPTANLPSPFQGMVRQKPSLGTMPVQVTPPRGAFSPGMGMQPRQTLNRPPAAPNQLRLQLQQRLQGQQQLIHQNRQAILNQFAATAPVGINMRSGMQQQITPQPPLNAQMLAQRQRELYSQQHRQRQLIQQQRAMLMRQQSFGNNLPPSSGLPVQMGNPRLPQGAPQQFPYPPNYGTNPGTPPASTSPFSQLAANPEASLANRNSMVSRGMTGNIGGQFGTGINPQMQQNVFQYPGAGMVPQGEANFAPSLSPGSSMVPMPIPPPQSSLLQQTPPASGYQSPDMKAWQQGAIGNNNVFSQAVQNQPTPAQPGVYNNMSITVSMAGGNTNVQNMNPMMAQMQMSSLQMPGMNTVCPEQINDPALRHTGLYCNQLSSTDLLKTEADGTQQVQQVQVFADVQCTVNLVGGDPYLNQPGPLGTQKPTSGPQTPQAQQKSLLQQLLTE

Structure (SMILES): CC(C)C[C@H](NC(=O)[C@H](C)NC(=O)[C@H](C)NC(=O)[C@H](C)NC(=O)[C@H](C)NC(=O)[C@H](CC(C)C)NC(=O)[C@@H](N)CCCNC(=N)N)C(=O)N[C@@H](CC(C)C)C(=O)N1CCC[C@H]1C(=O)N1CCC[C@H]1C(=O)N[C@H](C(=O)N[C@@H](CCC(=O)O)C(=O)N[C@@H](CCC(N)=O)C(=O)N[C@@H](CC(=O)O)C(=O)N[C@@H](CC(C)C)C(=O)N[C@@]1(C)CCC/C=C\CCC[C@@](C)(C(=O)N[C@@H](Cc2ccc(O)cc2)C(N)=O)NC(=O)[C@H](CC2CCCCC2)NC(=O)[C@H](CC(C)C)NC(=O)[C@H](CCCCN)NC1=O)[C@@H](C)O [ND1-YL2] (H-RLAAAALLPPTEQDL[S5]KL[Cha][S5]Y-NH2; staple (Z) 16-20)
- Ki [1]: 0.32 µM
- Improved affinity for the UBR box compared to the RLAA tetrapeptide [2]: approximately 3 fold
- Ki [2]: 1.48 µM
- Difference in binding affinity for target E3 ligase compared to CL1-YL2 ([2]; ND1-YL2 binds less strongly to its E3 ligase than CL1-YL2): ~10 fold
- Degradation effect on SRC-3 [3]: no degradation effect was observed
- Effect on cell survival [4]: did not significantly affect the survival
- Selective degradation of SRC-1 over SRC-3 ([5]; 20 μM): selectively degraded only SRC-1
- Time after treatment at which SRC-1 degradation was evident ([5]; 20 μM): 8 h
- Time for which SRC-1 degradation was maintained without detectable recovery ([5]; 20 μM): 24 h
- SRC-1 degradation, single agents compared ([5]; 20 μM, 12 hours): degradation of SRC-1 appeared only in ND1-YL2
- Time to restoration of SRC-1 expression to the original level after removal of compound ([5]; 20 μM, after washing): ≤ 12 h
- SRC-1 degradation ([5]; various concentrations, Western blot): strongest activity among the synthesized and treated compounds
- DC50 ([5]; various concentrations, Western blot, read-out: DC50 for reduction of SRC-1 expression level): ~10 µM
- SRC-1 degradation when treated together with MG-132 ([5]; with proteasome inhibitor MG-132 (5 μM), 12 hours): did not show the effect of degrading SRC-1
